According to patent US11566022B2, “3-(5-methoxy-1-oxoisoindolin-2-yl)piperidine-2,6-dione derivatives and uses thereof” (NOVARTIS AG, priority 2019, dated 2023):

Biological target: HiBit-WIZ fusion protein (Homo sapiens, UniProt O95785+Q96SW2)
Assay: Quantification of WIZ protein levels in HiBit tag fusion protein assay (WIZ HiBit assay in 293T cells)
Assay type: cell-based
Parameters: Dmax: dose or concentration left out as unconfirmed
Conditions: for Dmax / remaining activity at up to 25 µM: HEK-293T, 293T cells; for Dmax: 100 minus Amax, read-out: % degradation of WIZ (100-Amax); for remaining activity at up to 25 µM: DMSO-normalized, curve-fitted percentage of WIZ-HiBit remaining at 25 uM, read-out: WIZ Amax; for DC50: WIZ HiBit assay in 293T cells, 10-point, 5-fold dose response, highest concentration 25 μM, about 18 hours, read-out: WIZ AC50

HiBit-WIZ fusion protein, sequence (O95785 whole entry, the tested form may be a part): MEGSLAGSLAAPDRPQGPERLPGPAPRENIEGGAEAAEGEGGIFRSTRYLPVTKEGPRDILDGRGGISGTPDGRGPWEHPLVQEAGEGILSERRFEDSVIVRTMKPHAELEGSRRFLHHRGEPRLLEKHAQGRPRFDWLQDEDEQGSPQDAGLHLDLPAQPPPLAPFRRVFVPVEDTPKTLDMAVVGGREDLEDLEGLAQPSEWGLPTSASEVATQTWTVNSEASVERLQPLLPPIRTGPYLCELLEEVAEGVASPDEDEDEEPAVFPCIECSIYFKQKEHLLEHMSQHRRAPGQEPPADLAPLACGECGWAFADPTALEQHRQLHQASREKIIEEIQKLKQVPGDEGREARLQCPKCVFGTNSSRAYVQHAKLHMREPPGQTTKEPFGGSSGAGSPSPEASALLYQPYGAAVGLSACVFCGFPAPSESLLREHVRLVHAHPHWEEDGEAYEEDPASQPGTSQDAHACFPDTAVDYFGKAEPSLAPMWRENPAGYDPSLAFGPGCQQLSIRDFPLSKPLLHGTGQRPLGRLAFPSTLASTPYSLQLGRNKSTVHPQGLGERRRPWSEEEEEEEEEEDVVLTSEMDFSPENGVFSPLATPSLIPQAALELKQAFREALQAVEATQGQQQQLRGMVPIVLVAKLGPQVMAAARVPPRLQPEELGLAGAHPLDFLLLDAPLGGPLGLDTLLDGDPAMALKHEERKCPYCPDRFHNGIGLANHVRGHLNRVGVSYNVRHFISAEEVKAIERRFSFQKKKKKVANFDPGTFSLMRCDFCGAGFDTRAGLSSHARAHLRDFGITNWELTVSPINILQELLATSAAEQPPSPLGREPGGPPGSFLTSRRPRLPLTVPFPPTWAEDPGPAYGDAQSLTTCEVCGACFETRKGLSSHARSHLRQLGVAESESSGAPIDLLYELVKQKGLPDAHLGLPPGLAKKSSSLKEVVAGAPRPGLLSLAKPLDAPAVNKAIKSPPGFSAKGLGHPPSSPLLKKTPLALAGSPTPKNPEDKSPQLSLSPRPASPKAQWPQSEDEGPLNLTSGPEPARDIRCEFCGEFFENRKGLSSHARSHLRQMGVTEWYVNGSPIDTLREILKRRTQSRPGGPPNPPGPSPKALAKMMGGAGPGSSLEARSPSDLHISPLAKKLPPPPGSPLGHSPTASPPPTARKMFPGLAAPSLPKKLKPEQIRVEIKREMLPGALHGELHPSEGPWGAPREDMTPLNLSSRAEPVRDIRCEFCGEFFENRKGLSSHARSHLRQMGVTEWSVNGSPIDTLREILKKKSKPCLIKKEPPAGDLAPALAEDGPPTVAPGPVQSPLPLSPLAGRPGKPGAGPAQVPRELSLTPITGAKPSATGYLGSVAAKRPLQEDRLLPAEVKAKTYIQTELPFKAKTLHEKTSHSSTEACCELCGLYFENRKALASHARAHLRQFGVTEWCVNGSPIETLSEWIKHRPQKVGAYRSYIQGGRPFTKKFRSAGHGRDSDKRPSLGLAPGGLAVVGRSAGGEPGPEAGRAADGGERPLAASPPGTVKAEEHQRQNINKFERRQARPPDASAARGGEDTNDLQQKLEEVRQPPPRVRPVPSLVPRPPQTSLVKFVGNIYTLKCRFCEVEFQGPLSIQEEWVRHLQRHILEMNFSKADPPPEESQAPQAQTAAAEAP
HiBit-WIZ fusion protein, sequence (Q96SW2 whole entry, the tested form may be a part): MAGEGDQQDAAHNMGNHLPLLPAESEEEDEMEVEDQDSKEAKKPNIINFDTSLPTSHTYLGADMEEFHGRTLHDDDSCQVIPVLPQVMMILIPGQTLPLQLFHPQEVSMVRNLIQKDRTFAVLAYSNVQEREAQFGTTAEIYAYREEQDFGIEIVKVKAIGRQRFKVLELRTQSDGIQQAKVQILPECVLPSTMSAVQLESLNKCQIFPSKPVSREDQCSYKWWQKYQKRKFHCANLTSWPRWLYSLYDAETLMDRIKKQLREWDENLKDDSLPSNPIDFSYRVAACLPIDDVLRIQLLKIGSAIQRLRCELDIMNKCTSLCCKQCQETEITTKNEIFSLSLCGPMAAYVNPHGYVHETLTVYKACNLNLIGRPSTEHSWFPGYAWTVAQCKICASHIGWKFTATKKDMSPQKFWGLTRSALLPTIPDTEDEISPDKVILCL
HiBit-WIZ fusion protein, sequence (Q16531 whole entry partner, the tested form may be a part): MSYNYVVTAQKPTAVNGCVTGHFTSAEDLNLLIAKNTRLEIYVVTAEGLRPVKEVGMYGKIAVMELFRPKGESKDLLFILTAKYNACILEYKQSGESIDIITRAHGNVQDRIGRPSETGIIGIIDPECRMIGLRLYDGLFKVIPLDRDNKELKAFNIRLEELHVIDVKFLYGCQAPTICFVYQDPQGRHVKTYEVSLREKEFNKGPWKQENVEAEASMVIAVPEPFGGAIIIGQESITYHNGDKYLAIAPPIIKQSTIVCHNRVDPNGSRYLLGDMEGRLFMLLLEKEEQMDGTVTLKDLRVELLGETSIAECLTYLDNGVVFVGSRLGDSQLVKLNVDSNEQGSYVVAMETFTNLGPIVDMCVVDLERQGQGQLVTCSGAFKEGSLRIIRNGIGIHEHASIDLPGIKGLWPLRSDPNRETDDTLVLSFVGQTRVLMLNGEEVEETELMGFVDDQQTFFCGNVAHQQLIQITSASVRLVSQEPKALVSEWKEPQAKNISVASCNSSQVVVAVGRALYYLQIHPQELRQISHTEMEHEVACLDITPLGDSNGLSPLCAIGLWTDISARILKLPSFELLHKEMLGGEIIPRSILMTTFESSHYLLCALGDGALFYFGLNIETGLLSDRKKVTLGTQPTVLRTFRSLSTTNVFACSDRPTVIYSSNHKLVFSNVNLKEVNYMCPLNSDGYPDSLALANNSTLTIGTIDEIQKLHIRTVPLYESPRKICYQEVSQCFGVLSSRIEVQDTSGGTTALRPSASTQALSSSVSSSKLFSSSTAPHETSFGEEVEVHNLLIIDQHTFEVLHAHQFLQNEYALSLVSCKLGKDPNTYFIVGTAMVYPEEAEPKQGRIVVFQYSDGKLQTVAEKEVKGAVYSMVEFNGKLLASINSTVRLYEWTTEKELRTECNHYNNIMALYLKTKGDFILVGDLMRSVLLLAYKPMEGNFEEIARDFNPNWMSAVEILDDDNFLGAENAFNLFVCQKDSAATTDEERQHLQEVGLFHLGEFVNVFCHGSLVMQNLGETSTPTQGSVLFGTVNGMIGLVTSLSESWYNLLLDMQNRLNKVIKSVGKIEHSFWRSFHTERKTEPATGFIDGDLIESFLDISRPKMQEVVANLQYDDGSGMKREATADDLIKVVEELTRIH

Structure (SMILES) | Dmax [%] | remaining activity at up to 25 µM [%] | DC50 [nM]
O=C1CCC(N2Cc3cc(OC[C@@H]4CCCCN4Cc4cccc(Cn5cccn5)c4)ccc3C2=O)C(=O)N1 (stereo partly drawn) [Compound I-50bz] | 85.2 | 14.8 | 172
N#Cc1ccn2cc(CN3CCCC[C@H]3COc3ccc4c(c3)CN(C3CCC(=O)NC3=O)C4=O)nc2c1 (stereo partly drawn) [Compound I-50c] | 38.1 | 61.9 | > 25000
O=C1CCC(N2Cc3cc(OC[C@H]4CCCCN4Cc4cccn5ccnc45)ccc3C2=O)C(=O)N1 (stereo partly drawn) [Compound I-50ca] | 76.3 | 23.7 | 239
O=C1CCC(N2Cc3cc(OC[C@@H]4CCCCN4Cc4cn[nH]c4)ccc3C2=O)C(=O)N1 (stereo partly drawn) [Compound I-50cc] | 71.7 | 28.3 | 5970
O=C1CCC(N2Cc3cc(OC[C@H]4CCCCN4Cc4cncnc4)ccc3C2=O)C(=O)N1 (stereo partly drawn) [Compound I-50ce] | 43.9 | 56.1 | > 25000
CCOC(=O)c1n[nH]cc1CN1CCCC[C@@H]1COc1ccc2c(c1)CN(C1CCC(=O)NC1=O)C2=O (stereo partly drawn) [Compound I-50ch] | 59.1 | 40.9 | 9240
CC(C)Cn1cc(CN2CCCC[C@H]2COc2ccc3c(c2)CN(C2CCC(=O)NC2=O)C3=O)cn1 (stereo partly drawn) [Compound I-50ci] | 83.2 | 16.8 | 306
O=C1CCC(N2Cc3cc(OC[C@@H]4CCCCN4Cc4cnn(Cc5ccccc5)c4)ccc3C2=O)C(=O)N1 (stereo partly drawn) [Compound I-50ck] | 83.2 | 16.8 | 766
COc1cc(C#N)ccc1CN1CCCC[C@@H]1COc1ccc2c(c1)CN(C1CCC(=O)NC1=O)C2=O (stereo partly drawn) [Compound I-50cm] | 67.2 | 32.8 | 1770
O=C1CCC(N2Cc3cc(OC[C@@H]4CCCCN4Cc4cncnc4)ccc3C2=O)C(=O)N1 (stereo partly drawn) [Compound I-50cq] | 7.3 | 92.7 | > 25000

Further lines, results first:

Dmax [%] | remaining activity at up to 25 µM [%] | DC50 [nM] | Structure (SMILES)
25.7 | 74.3 | > 25000 | Cc1cc(CN2CCCC[C@H]2COc2ccc3c(c2)CN(C2CCC(=O)NC2=O)C3=O)no1 (stereo partly drawn) [Compound I-50by]
74.5 | 25.5 | 5800 | CC(C)N1CCC(CN2CCCC[C@H]2COc2ccc3c(c2)CN(C2CCC(=O)NC2=O)C3=O)CC1 (stereo partly drawn) [Compound I-50cb]
69.7 | 30.3 | 3740 | Cc1nc2ccccn2c1CN1CCCC[C@@H]1COc1ccc2c(c1)CN(C1CCC(=O)NC1=O)C2=O (stereo partly drawn) [Compound I-50cd]
38.1 | 61.9 | > 25000 | CC(C)(C)OC(=O)NC1(CN2CCCC[C@@H]2COc2ccc3c(c2)CN(C2CCC(=O)NC2=O)C3=O)CCCC1 (stereo partly drawn) [Compound I-50cf]
92.7 | 7.3 | 43 | O=C1CCC(N2Cc3cc(OC[C@H]4CCCCN4Cc4ccc(OCCN5CCOCC5)cc4)ccc3C2=O)C(=O)N1 (stereo partly drawn) [Compound I-50cg]
71.8 | 28.2 | 757 | CNc1ncccc1CN1CCCC[C@@H]1COc1ccc2c(c1)CN(C1CCC(=O)NC1=O)C2=O (stereo partly drawn) [Compound I-50cj]
77.7 | 22.3 | 644 | O=C1CCC(N2Cc3cc(OC[C@H]4CCCCN4CC4CCN(C(=O)OCc5ccccc5)CC4)ccc3C2=O)C(=O)N1 (stereo partly drawn) [Compound I-50cl]
65.2 | 34.8 | 3530 | N#Cc1cccc(Cn2cccc(CN3CCCC[C@@H]3COc3ccc4c(c3)CN(C3CCC(=O)NC3=O)C4=O)c2=O)c1 (stereo partly drawn) [Compound I-50cp]
52.9 | 47.1 | > 25000 | O=C1CCC(N2Cc3cc(OC[C@@H]4CCCCN4CC4CCN(C(=O)OCc5ccccc5)CC4)ccc3C2=O)C(=O)N1 (stereo partly drawn) [Compound I-50cr]
